Earlier results in patent US12667556B2, “Extended release injectable formulations comprising an isoxazoline active agent, methods and uses thereof” (BOEHRINGER INGELHEIM ANIMAL HEALTH USA INC., priority 2015, dated 2026).
Values after ≈ are worked out from the molar mass of the structure shown.

Test system: fleas

O=C(CNC(=O)c1ccc(C2=NOC(c3cc(Cl)cc(C(F)(F)F)c3)(C(F)(F)F)C2)c2ccccc12)NCC(F)(F)F (centres unmarked) [compound (IIc), 4-[5-[3-chloro-5-(trifluoromethyl)phenyl]-4,5-dihydro-5-(trifluoromethyl)-3-isoxazolyl]-N-[2-oxo-2-[(2,2,2-trifluoroethyl)amino]ethyl]-1-naphthalenecarboxamide]
EC90 (plasma concentration) against fleas on dogs (Letendre et al., Veterinary Parasitology 201 (2014) 190-197): 0.023 µg/mL (≈ 0.0367 µM) | plasma concentration known to effectively control fleas on dogs (known, literature): about 20 ng/ml
